Literature values in publication PMC8513935.
Blank lines part the entries; values can stand above or below the molecule they belong to.

Columns and labels:
[1] = derived by the authors as gas->solvent minus gas->water (a hypothetical dry solvent; the ESI), not a two-phase measurement
[2] = log P octanol/water from commercial databases, averaged (the ESI); details: Octanol (wet), 25 C
[3] = experimental, compiled by the authors from the literature (the ESI cites the sources)

- log K of transfer, water to solvent ([1]; 1,2-Dichloroethane, 25 C): 1.67 log10 K
- log K of transfer, water to solvent ([1]; CCl4, 25 C): 0.86 log10 K
- log K of transfer, water to solvent ([1]; Chlorobenzene, 25 C): 1.3 log10 K
- log K of transfer, water to solvent ([1]; Chloroform, 25 C): 1.47 log10 K
- log K of transfer, water to solvent ([1]; Dichloromethane, 25 C): 1.66 log10 K
- log K of transfer, water to solvent ([1]; Hexadecane, 25 C): 0.237 log10 K
- log K of transfer, water to solvent ([1]; Hexane, 25 C): 0.29 log10 K
- log K of transfer, water to solvent ([1]; Perfluoroalkane, 25 C): -1.33 log10 K
- log K of transfer, water to solvent [2]: 2.58 log10 K
- log K of transfer, gas to solvent ([3]; 1,2-Dichloroethane, 25 C): 6.17 log10 K
- log K of transfer, gas to solvent ([3]; CCl4, 25 C): 5.36 log10 K
- log K of transfer, gas to solvent ([3]; Chlorobenzene, 25 C): 5.8 log10 K
- log K of transfer, gas to solvent ([3]; Chloroform, 25 C): 5.97 log10 K
- log K of transfer, gas to solvent ([3]; Dichloromethane, 25 C): 6.16 log10 K
- log K of transfer, gas to solvent ([3]; Hexadecane, 25 C): 4.73 log10 K
- log K of transfer, gas to solvent ([3]; Hexane, 25 C): 4.79 log10 K
- log K of transfer, gas to solvent ([3]; Perfluoroalkane, 25 C): 3.17 log10 K
- log K of transfer, gas to solvent ([3]; Water, 25 C): 4.5 log10 K
Compound: CCc1ccc(O)cc1

- log K of transfer, water to solvent ([1]; 2-Methylpropan-1-ol, 25 C): 2.46 log10 K
- log K of transfer, water to solvent ([1]; 2-Methylpropan-2-ol, 25 C): 2.5 log10 K
- log K of transfer, water to solvent ([1]; 3-Methylbutan-1-ol, 25 C): 2.47 log10 K
- log K of transfer, water to solvent ([1]; Butan-1-ol, 25 C): 2.48 log10 K
- log K of transfer, water to solvent ([1]; Butan-2-ol, 25 C): 2.47 log10 K
- log K of transfer, water to solvent ([1]; CCl4, 25 C): 2.84 log10 K
- log K of transfer, water to solvent ([1]; Hexadecane, 25 C): 2.54 log10 K
- log K of transfer, water to solvent ([1]; Hexane, 25 C): 2.83 log10 K
- log K of transfer, water to solvent ([1]; Pentan-1-ol, 25 C): 2.48 log10 K
- log K of transfer, water to solvent ([1]; Propan-1-ol, 25 C): 2.48 log10 K
- log K of transfer, water to solvent ([1]; Propan-2-ol, 25 C): 2.46 log10 K
- log K of transfer, water to solvent [2]: 2.4 log10 K
- log K of transfer, gas to solvent ([3]; 2-Methylpropan-1-ol, 25 C): 1.45 log10 K
- log K of transfer, gas to solvent ([3]; 2-Methylpropan-2-ol, 25 C): 1.49 log10 K
- log K of transfer, gas to solvent ([3]; 3-Methylbutan-1-ol, 25 C): 1.46 log10 K
- log K of transfer, gas to solvent ([3]; Butan-1-ol, 25 C): 1.47 log10 K
- log K of transfer, gas to solvent ([3]; Butan-2-ol, 25 C): 1.46 log10 K
- log K of transfer, gas to solvent ([3]; CCl4, 25 C): 1.83 log10 K
- log K of transfer, gas to solvent ([3]; Hexadecane, 25 C): 1.53 log10 K
- log K of transfer, gas to solvent ([3]; Hexane, 25 C): 1.83 log10 K
- log K of transfer, gas to solvent ([3]; Pentan-1-ol, 25 C): 1.47 log10 K
- log K of transfer, gas to solvent ([3]; Propan-1-ol, 25 C): 1.47 log10 K
- log K of transfer, gas to solvent ([3]; Propan-2-ol, 25 C): 1.45 log10 K
- log K of transfer, gas to solvent ([3]; Water, 25 C): -1.01 log10 K
Compound: C=CCC

- log K of transfer, water to solvent ([1]; 2-Methylpropan-2-ol, 25 C): 0.77 log10 K
- log K of transfer, water to solvent ([1]; Butan-1-ol, 25 C): 1.2 log10 K
- log K of transfer, water to solvent ([1]; Chloroform, 25 C): 1.89 log10 K
- log K of transfer, water to solvent ([1]; Cyclohexane, 25 C): 0.27 log10 K
- log K of transfer, water to solvent ([1]; Hexadecane, 25 C): 0.131 log10 K
- log K of transfer, water to solvent ([1]; Propan-1-ol, 25 C): 1.15 log10 K
- log K of transfer, water to solvent [2]: 1.2 log10 K
- log K of transfer, gas to solvent ([3]; 2-Methylpropan-2-ol, 25 C): 4.27 log10 K
- log K of transfer, gas to solvent ([3]; Butan-1-ol, 25 C): 4.7 log10 K
- log K of transfer, gas to solvent ([3]; Chloroform, 25 C): 5.39 log10 K
- log K of transfer, gas to solvent ([3]; Cyclohexane, 25 C): 3.77 log10 K
- log K of transfer, gas to solvent ([3]; Hexadecane, 25 C): 3.63 log10 K
- log K of transfer, gas to solvent ([3]; Propan-1-ol, 25 C): 4.65 log10 K
- log K of transfer, gas to solvent ([3]; Water, 25 C): 3.5 log10 K
Compound: Cc1cccnc1

- log K of transfer, water to solvent ([1]; 1,2-Dichloroethane, 25 C): 4.94 log10 K
- log K of transfer, water to solvent ([1]; 2-Methylpropan-1-ol, 25 C): 4.83 log10 K
- log K of transfer, water to solvent ([1]; 2-Methylpropan-2-ol, 25 C): 4.86 log10 K
- log K of transfer, water to solvent ([1]; 3-Methylbutan-1-ol, 25 C): 4.85 log10 K
- log K of transfer, water to solvent ([1]; Acetone, 25 C): 4.77 log10 K
- log K of transfer, water to solvent ([1]; Acetonitrile, 25 C): 4.31 log10 K
- log K of transfer, water to solvent ([1]; Butan-1-ol, 25 C): 4.84 log10 K
- log K of transfer, water to solvent ([1]; Butanone, 25 C): 4.99 log10 K
- log K of transfer, water to solvent ([1]; Butyronitrile, 25 C): 4.78 log10 K
- log K of transfer, water to solvent ([1]; CCl4, 25 C): 5.44 log10 K
- log K of transfer, water to solvent ([1]; Chlorobenzene, 25 C): 5.43 log10 K
- log K of transfer, water to solvent ([1]; Chloroform, 25 C): 5.35 log10 K
- log K of transfer, water to solvent ([1]; Cyclohexanone, 25 C): 4.91 log10 K
- log K of transfer, water to solvent ([1]; Di-n-butyl ether, 25 C): 5.34 log10 K
- log K of transfer, water to solvent ([1]; Dichloromethane, 25 C): 5.23 log10 K
- log K of transfer, water to solvent ([1]; Ethanol, 25 C): 4.67 log10 K
- log K of transfer, water to solvent ([1]; Hexadecane, 25 C): 5.13 log10 K
- log K of transfer, water to solvent ([1]; Hexan-1-ol, 25 C): 4.89 log10 K
- log K of transfer, water to solvent ([1]; Hexane, 25 C): 5.46 log10 K
- log K of transfer, water to solvent ([1]; Methanol, 25 C): 4.46 log10 K
- log K of transfer, water to solvent ([1]; Octan-1-ol(dry), 25 C): 4.91 log10 K
- log K of transfer, water to solvent ([1]; Perfluoroalkane, 25 C): 4.21 log10 K
- log K of transfer, water to solvent ([1]; Propan-1-ol, 25 C): 4.7 log10 K
- log K of transfer, water to solvent ([1]; Propan-2-ol, 25 C): 4.7 log10 K
- log K of transfer, water to solvent ([1]; Propionitrile, 25 C): 4.63 log10 K
- log K of transfer, water to solvent ([1]; Tetrahydrofuran, 25 C): 5.3 log10 K
- log K of transfer, water to solvent ([1]; Toluene, 25 C): 5.29 log10 K
- log K of transfer, water to solvent [2]: 4.5 log10 K
- log K of transfer, gas to solvent ([3]; 1,2-Dichloroethane, 25 C): 2.98 log10 K
- log K of transfer, gas to solvent ([3]; 2-Methylpropan-1-ol, 25 C): 2.87 log10 K
- log K of transfer, gas to solvent ([3]; 2-Methylpropan-2-ol, 25 C): 2.9 log10 K
- log K of transfer, gas to solvent ([3]; 3-Methylbutan-1-ol, 25 C): 2.89 log10 K
- log K of transfer, gas to solvent ([3]; Acetonitrile, 25 C): 2.35 log10 K
- log K of transfer, gas to solvent ([3]; Butan-1-ol, 25 C): 2.88 log10 K
- log K of transfer, gas to solvent ([3]; Butanone, 25 C): 3.03 log10 K
- log K of transfer, gas to solvent ([3]; Butyronitrile, 25 C): 2.82 log10 K
- log K of transfer, gas to solvent ([3]; CCl4, 25 C): 3.48 log10 K
- log K of transfer, gas to solvent ([3]; Chlorobenzene, 25 C): 3.47 log10 K
- log K of transfer, gas to solvent ([3]; Chloroform, 25 C): 3.39 log10 K
- log K of transfer, gas to solvent ([3]; Cyclohexanone, 25 C): 2.95 log10 K
- log K of transfer, gas to solvent ([3]; Di-n-butyl ether, 25 C): 3.38 log10 K
- log K of transfer, gas to solvent ([3]; Dichloromethane, 25 C): 3.27 log10 K
- log K of transfer, gas to solvent ([3]; Ethanol, 25 C): 2.71 log10 K
- log K of transfer, gas to solvent ([3]; Hexadecane, 25 C): 3.17 log10 K
- log K of transfer, gas to solvent ([3]; Hexan-1-ol, 25 C): 2.93 log10 K
- log K of transfer, gas to solvent ([3]; Hexane, 25 C): 3.5 log10 K
- log K of transfer, gas to solvent ([3]; Methanol, 25 C): 2.5 log10 K
- log K of transfer, gas to solvent ([3]; Octan-1-ol, 25 C): 2.95 log10 K
- log K of transfer, gas to solvent ([3]; Perfluoroalkane, 25 C): 2.25 log10 K
- log K of transfer, gas to solvent ([3]; Propan-1-ol, 25 C): 2.74 log10 K
- log K of transfer, gas to solvent ([3]; Propan-2-ol, 25 C): 2.74 log10 K
- log K of transfer, gas to solvent ([3]; Propanone, 25 C): 2.81 log10 K
- log K of transfer, gas to solvent ([3]; Propionitrile, 25 C): 2.67 log10 K
- log K of transfer, gas to solvent ([3]; Tetrahydrofuran, 25 C): 3.34 log10 K
- log K of transfer, gas to solvent ([3]; Toluene, 25 C): 3.33 log10 K
- log K of transfer, gas to solvent ([3]; Water, 25 C): -1.96 log10 K
Compound: CCCCCCC
